Laboratory results taken from patent publication US12077503B2, “Substituted cyclic amides and their use as herbicides” (FMC CORPORATION, priority 2015, dated 2024).

How the values were obtained:
Assay type in all cases: in vivo
[1] = system: ivy-leaved morning glory (Ipomoea hederacea); experiment: Test G Pre-Emergence Protocol; details: Ipomoea, pre-emergence, 312 h, evaluated after 13 days; for pest or weed control at 15.625 g/ha: 15.625 g ai/ha, read-out: Morning-glory, Ivy-leaved damage rating (100=total damage to plant; 0=no damage to plant); for pest or weed control at 62.5 g/ha: 62.5 g ai/ha, 100=total damage to plant, 0=no damage to plant, read-out: plant damage rating, Morningglory, Ivy-leaved; for pest or weed control at 250 g/ha: 250 g ai/ha, read-out: Morningglory, Ivy-leaved damage rating (100=total damage to plant; 0=no damage to plant)
Summary of the method: (§1)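 Spraying took place one day after sowing, at 15.625, 62.5 or 250 g/ha, using an acetone/water (50:50) spray solution containing 0.5% Tween 20. Plants were kept under glasshouse conditions (24/16 °C, 14 h light, 65% humidity, watered twice daily), and injury was rated 0–100 at day 13.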

[2] = system: giant foxtail (Setaria faberi); experiment: Test G Pre-Emergence Protocol; details: Setaria faberi, pre-emergence, 312 h, evaluated after 13 days; for pest or weed control at 15.625 g/ha: 15.625 g ai/ha; for pest or weed control at 15.625 g/ha / pest or weed control at 250 g/ha: read-out: Foxtail, Giant damage rating (100=total damage to plant; 0=no damage to plant); for pest or weed control at 62.5 g/ha: 62.5 g ai/ha, 100=total damage to plant, 0=no damage to plant, read-out: plant damage rating, Foxtail, Giant; for pest or weed control at 250 g/ha: 250 g ai/ha
Summary of the method: as §1

[3] = system: corn (Zea mays); experiment: Test G Pre-Emergence Protocol; details: Zea mays, pre-emergence, 312 h, evaluated after 13 days; for plant injury at 15.625 g/ha: 15.625 g ai/ha; for plant injury at 15.625 g/ha / plant injury at 250 g/ha: read-out: Corn damage rating (100=total damage to plant; 0=no damage to plant); for plant injury at 62.5 g/ha: 62.5 g ai/ha, 100=total damage to plant, 0=no damage to plant, read-out: plant damage rating, Corn; for plant injury at 250 g/ha: 250 g ai/ha
Summary of the method: as §1

[4] = system: redroot pigweed (Amaranthus retroflexus); experiment: Test G Pre-Emergence Protocol; details: Amaranthus retroflexus, pre-emergence, 312 h, evaluated after 13 days; for pest or weed control at 15.625 g/ha: 15.625 g ai/ha; for pest or weed control at 15.625 g/ha / pest or weed control at 250 g/ha: read-out: Pigweed, Redroot damage rating (100=total damage to plant; 0=no damage to plant); for pest or weed control at 62.5 g/ha: 62.5 g ai/ha, 100=total damage to plant, 0=no damage to plant, read-out: plant damage rating, Pigweed, Redroot; for pest or weed control at 250 g/ha: 250 g ai/ha
Summary of the method: as §1

[5] = system: barnyardgrass (Echinochloa crus-galli); experiment: Test G Pre-Emergence Protocol; details: Echinochloa crus-galli, pre-emergence, 312 h, evaluated after 13 days; for pest or weed control at 15.625 g/ha: 15.625 g ai/ha, read-out: Barnyard grass damage rating (100=total damage to plant; 0=no damage to plant); for pest or weed control at 62.5 g/ha: 62.5 g ai/ha, 100=total damage to plant, 0=no damage to plant, read-out: plant damage rating, Barnyardgrass; for pest or weed control at 250 g/ha: 250 g ai/ha, read-out: Barnyardgrass damage rating (100=total damage to plant; 0=no damage to plant)
Summary of the method: as §1

[6] = system: velvetleaf (Abutilon theophrasti); experiment: Test G Pre-Emergence Protocol; details: Abutilon theophrasti, pre-emergence, 312 h, evaluated after 13 days; for pest or weed control at 15.625 g/ha: 15.625 g ai/ha; for pest or weed control at 15.625 g/ha / pest or weed control at 250 g/ha: read-out: Velvetleaf damage rating (100=total damage to plant; 0=no damage to plant); for pest or weed control at 62.5 g/ha: 62.5 g ai/ha, 100=total damage to plant, 0=no damage to plant, read-out: plant damage rating, Velvetleaf; for pest or weed control at 250 g/ha: 250 g ai/ha
Summary of the method: as §1

[7] = system: ivy-leaved morning glory (Ipomoea hederacea); experiment: Test G Post-Emergence Protocol; details: Ipomoea, post-emergence, 312 h; for pest or weed control at 15.625 g/ha: 15.625 g ai/ha, evaluated after 13 days (100=total damage to plant; 0=no damage to plant), read-out: Morningglory, Ivy-leaved damage rating; for pest or weed control at 62.5 g/ha: 62.5 g ai/ha, read-out: Morningglory, Ivy-leaved damage rating (100=total damage to plant; 0=no damage to plant); for pest or weed control at 62.5 g/ha / pest or weed control at 250 g/ha: evaluated after 13 days; for pest or weed control at 250 g/ha: 250 g ai/ha, read-out: damage to plant, Morningglory, Ivy-leaved (100=total damage to plant; 0=no damage to plant)
Summary of the method: (§2)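 Foliar application was made 8 days after sowing, using an aqueous spray of the active in acetone/water (50:50) with 0.5% Tween 20, at doses of 15.625, 62.5 or 250 g/ha. Injury was assessed 13 days later, where 100 meant the plant was fully damaged.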

[8] = system: giant foxtail (Setaria faberi); experiment: Test G Post-Emergence Protocol; details: Setaria faberi, post-emergence, 312 h; for pest or weed control at 15.625 g/ha: 15.625 g ai/ha, evaluated after 13 days (100=total damage to plant; 0=no damage to plant), read-out: Foxtail, Giant damage rating; for pest or weed control at 62.5 g/ha: 62.5 g ai/ha, read-out: Foxtail, Giant damage rating (100=total damage to plant; 0=no damage to plant); for pest or weed control at 62.5 g/ha / pest or weed control at 250 g/ha: evaluated after 13 days; for pest or weed control at 250 g/ha: 250 g ai/ha, read-out: damage to plant, Foxtail, Giant (100=total damage to plant; 0=no damage to plant)
Summary of the method: as §2

[9] = system: corn (Zea mays); experiment: Test G Post-Emergence Protocol; details: Zea mays, post-emergence, 312 h; for plant injury at 15.625 g/ha: 15.625 g ai/ha, evaluated after 13 days (100=total damage to plant; 0=no damage to plant), read-out: Corn damage rating; for plant injury at 62.5 g/ha: 62.5 g ai/ha, read-out: Corn damage rating (100=total damage to plant; 0=no damage to plant); for plant injury at 62.5 g/ha / plant injury at 250 g/ha: evaluated after 13 days; for plant injury at 250 g/ha: 250 g ai/ha, read-out: damage to plant, Corn (100=total damage to plant; 0=no damage to plant)
Summary of the method: as §2

[10] = system: redroot pigweed (Amaranthus retroflexus); experiment: Test G Post-Emergence Protocol; details: Amaranthus retroflexus, post-emergence, 312 h; for pest or weed control at 15.625 g/ha: 15.625 g ai/ha, evaluated after 13 days (100=total damage to plant; 0=no damage to plant), read-out: Pigweed, Redroot damage rating; for pest or weed control at 62.5 g/ha: 62.5 g ai/ha, read-out: Pigweed, Redroot damage rating (100=total damage to plant; 0=no damage to plant); for pest or weed control at 62.5 g/ha / pest or weed control at 250 g/ha: evaluated after 13 days; for pest or weed control at 250 g/ha: 250 g ai/ha, read-out: damage to plant, Pigweed, Redroot (100=total damage to plant; 0=no damage to plant)
Summary of the method: as §2

[11] = system: barnyardgrass (Echinochloa crus-galli); experiment: Test G Post-Emergence Protocol; details: Echinochloa crus-galli, post-emergence, 312 h; for pest or weed control at 15.625 g/ha: 15.625 g ai/ha, evaluated after 13 days (100=total damage to plant; 0=no damage to plant), read-out: Barnyardgrass damage rating; for pest or weed control at 62.5 g/ha: 62.5 g ai/ha, read-out: Barnyardgrass damage rating (100=total damage to plant; 0=no damage to plant); for pest or weed control at 62.5 g/ha / pest or weed control at 250 g/ha: evaluated after 13 days; for pest or weed control at 250 g/ha: 250 g ai/ha, read-out: damage to plant, Barnyardgrass (100=total damage to plant; 0=no damage to plant)
Summary of the method: as §2

[12] = system: velvetleaf (Abutilon theophrasti); experiment: Test G Post-Emergence Protocol; details: Abutilon theophrasti, post-emergence, 312 h; for pest or weed control at 15.625 g/ha: 15.625 g ai/ha, evaluated after 13 days (100=total damage to plant; 0=no damage to plant), read-out: Velvetleaf damage rating; for pest or weed control at 62.5 g/ha: 62.5 g ai/ha, read-out: Velvetleaf damage rating (100=total damage to plant; 0=no damage to plant); for pest or weed control at 62.5 g/ha / pest or weed control at 250 g/ha: evaluated after 13 days; for pest or weed control at 250 g/ha: 250 g ai/ha, read-out: damage to plant, Velvetleaf (100=total damage to plant; 0=no damage to plant)
Summary of the method: as §2

Compound | pest or weed control at 15.625 g/ha [1] [%] | pest or weed control at 62.5 g/ha [1] [%] | pest or weed control at 250 g/ha [1] [%] | pest or weed control at 15.625 g/ha [2] [%] | pest or weed control at 62.5 g/ha [2] [%] | pest or weed control at 250 g/ha [2] [%] | plant injury at 15.625 g/ha [3] [%] | plant injury at 62.5 g/ha [3] [%] | plant injury at 250 g/ha [3] [%] | pest or weed control at 15.625 g/ha [4] [%] | pest or weed control at 62.5 g/ha [4] [%] | pest or weed control at 250 g/ha [4] [%] | pest or weed control at 15.625 g/ha [5] [%] | pest or weed control at 62.5 g/ha [5] [%] | pest or weed control at 250 g/ha [5] [%] | pest or weed control at 15.625 g/ha [6] [%] | pest or weed control at 62.5 g/ha [6] [%] | pest or weed control at 250 g/ha [6] [%] | pest or weed control at 15.625 g/ha [7] [%] | pest or weed control at 62.5 g/ha [7] [%] | also measured
CN1C[C@@H](c2ccc(C(F)(F)F)cc2)[C@H](C(=O)Nc2cccc(C(F)(F)F)c2[N+](=O)[O-])C1=O (racemic) [Compound 1594] | 0 | 0 | 0 | 0 | 40 | 30 | 0 | 10 | 10 | 0 | 0 | 0 | 0 | 20 | 20 | 0 | 0 | 0 | 0 | 0 | pest or weed control at 250 g/ha [7]: 0%; pest or weed control at 15.625 g/ha [8]: 0%; pest or weed control at 62.5 g/ha [8]: 20%; pest or weed control at 250 g/ha [8]: 20%; plant injury at 15.625 g/ha [9]: 0%; plant injury at 62.5 g/ha [9]: 0%; plant injury at 250 g/ha [9]: 0%; pest or weed control at 15.625 g/ha [10]: 0%; pest or weed control at 62.5 g/ha [10]: 0%; pest or weed control at 250 g/ha [10]: 0%; pest or weed control at 15.625 g/ha [11]: 0%; pest or weed control at 62.5 g/ha [11]: 20%; pest or weed control at 250 g/ha [11]: 20%; pest or weed control at 15.625 g/ha [12]: 0%; pest or weed control at 62.5 g/ha [12]: 0%; pest or weed control at 250 g/ha [12]: 0%
Cc1nonc1NC(=O)[C@@H]1C(=O)N(C)C[C@H]1c1ccc(C(F)(F)F)cc1 (racemic) [Compound 1597] | 0 | 0 | 0 | 0 | 0 | 0 | 0 | 0 | 0 | 0 | 0 | 0 | 0 | 0 | 0 | 0 | 0 | 0 | 0 | 0 | pest or weed control at 250 g/ha [7]: 0%; pest or weed control at 15.625 g/ha [8]: 0%; pest or weed control at 62.5 g/ha [8]: 0%; pest or weed control at 250 g/ha [8]: 0%; plant injury at 15.625 g/ha [9]: 0%; plant injury at 62.5 g/ha [9]: 0%; plant injury at 250 g/ha [9]: 0%; pest or weed control at 15.625 g/ha [10]: 0%; pest or weed control at 62.5 g/ha [10]: 0%; pest or weed control at 250 g/ha [10]: 0%; pest or weed control at 15.625 g/ha [11]: 0%; pest or weed control at 62.5 g/ha [11]: 0%; pest or weed control at 250 g/ha [11]: 0%; pest or weed control at 15.625 g/ha [12]: 0%; pest or weed control at 62.5 g/ha [12]: 0%; pest or weed control at 250 g/ha [12]: 0%
CN1C[C@@H](c2ccc(C(F)(F)F)cc2)[C@H](C(=O)Nc2ccccc2Cl)C1=O (racemic) [Compound 1598] | 10 | 20 | 40 | 60 | 80 | 90 | 0 | 10 | 70 | 10 | 40 | 50 | 0 | 70 | 80 | 0 | 10 | 60 | 30 | 60 | pest or weed control at 250 g/ha [7]: 70%; pest or weed control at 15.625 g/ha [8]: 80%; pest or weed control at 62.5 g/ha [8]: 80%; pest or weed control at 250 g/ha [8]: 80%; plant injury at 15.625 g/ha [9]: 0%; plant injury at 62.5 g/ha [9]: 40%; plant injury at 250 g/ha [9]: 60%; pest or weed control at 15.625 g/ha [10]: 30%; pest or weed control at 62.5 g/ha [10]: 50%; pest or weed control at 250 g/ha [10]: 70%; pest or weed control at 15.625 g/ha [11]: 30%; pest or weed control at 62.5 g/ha [11]: 80%; pest or weed control at 250 g/ha [11]: 70%; pest or weed control at 15.625 g/ha [12]: 0%; pest or weed control at 62.5 g/ha [12]: 20%; pest or weed control at 250 g/ha [12]: 50%
